In the Kinase Knowledgebase extract (Sharma et al. 2016):

Experiments:
PIK3CA (human) = PIK3CA (human) (UniProt P42336); experiment: Enzyme Assay
PIK3CG (human) = PIK3CG (human) (UniProt P48736); experiment: Inhibition of PIK3CG Kinase Activity
Chain of PIK3CG (human) (P48736 whole entry, looked up): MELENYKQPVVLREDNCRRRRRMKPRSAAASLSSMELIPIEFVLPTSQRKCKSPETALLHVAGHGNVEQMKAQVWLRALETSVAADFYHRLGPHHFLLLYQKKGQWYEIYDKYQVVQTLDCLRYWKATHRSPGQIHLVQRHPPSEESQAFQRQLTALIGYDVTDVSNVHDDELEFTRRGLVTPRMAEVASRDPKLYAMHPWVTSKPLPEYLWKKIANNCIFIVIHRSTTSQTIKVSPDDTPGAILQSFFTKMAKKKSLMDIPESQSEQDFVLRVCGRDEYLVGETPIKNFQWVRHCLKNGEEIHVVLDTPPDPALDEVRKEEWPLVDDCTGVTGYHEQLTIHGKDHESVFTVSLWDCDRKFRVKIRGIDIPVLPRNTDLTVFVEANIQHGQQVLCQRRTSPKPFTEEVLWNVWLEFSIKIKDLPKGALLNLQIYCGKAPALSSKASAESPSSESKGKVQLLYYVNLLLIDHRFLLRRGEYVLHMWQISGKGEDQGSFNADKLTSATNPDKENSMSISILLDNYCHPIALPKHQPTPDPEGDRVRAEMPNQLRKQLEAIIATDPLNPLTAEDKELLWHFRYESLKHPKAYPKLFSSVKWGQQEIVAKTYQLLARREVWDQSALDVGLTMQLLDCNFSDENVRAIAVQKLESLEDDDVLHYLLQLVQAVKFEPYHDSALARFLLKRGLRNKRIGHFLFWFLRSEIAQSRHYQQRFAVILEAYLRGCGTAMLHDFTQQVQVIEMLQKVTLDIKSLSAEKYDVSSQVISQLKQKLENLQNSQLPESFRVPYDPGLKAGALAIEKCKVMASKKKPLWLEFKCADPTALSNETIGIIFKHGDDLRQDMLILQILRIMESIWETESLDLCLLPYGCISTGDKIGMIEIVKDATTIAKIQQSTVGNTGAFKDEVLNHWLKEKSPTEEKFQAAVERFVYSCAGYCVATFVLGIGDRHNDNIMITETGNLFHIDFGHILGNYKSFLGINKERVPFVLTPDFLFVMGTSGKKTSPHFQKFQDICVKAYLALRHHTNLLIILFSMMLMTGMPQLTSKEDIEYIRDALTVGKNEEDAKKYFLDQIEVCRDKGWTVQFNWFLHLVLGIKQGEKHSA

Chain of PIK3CA (human) (P42336 whole entry, looked up): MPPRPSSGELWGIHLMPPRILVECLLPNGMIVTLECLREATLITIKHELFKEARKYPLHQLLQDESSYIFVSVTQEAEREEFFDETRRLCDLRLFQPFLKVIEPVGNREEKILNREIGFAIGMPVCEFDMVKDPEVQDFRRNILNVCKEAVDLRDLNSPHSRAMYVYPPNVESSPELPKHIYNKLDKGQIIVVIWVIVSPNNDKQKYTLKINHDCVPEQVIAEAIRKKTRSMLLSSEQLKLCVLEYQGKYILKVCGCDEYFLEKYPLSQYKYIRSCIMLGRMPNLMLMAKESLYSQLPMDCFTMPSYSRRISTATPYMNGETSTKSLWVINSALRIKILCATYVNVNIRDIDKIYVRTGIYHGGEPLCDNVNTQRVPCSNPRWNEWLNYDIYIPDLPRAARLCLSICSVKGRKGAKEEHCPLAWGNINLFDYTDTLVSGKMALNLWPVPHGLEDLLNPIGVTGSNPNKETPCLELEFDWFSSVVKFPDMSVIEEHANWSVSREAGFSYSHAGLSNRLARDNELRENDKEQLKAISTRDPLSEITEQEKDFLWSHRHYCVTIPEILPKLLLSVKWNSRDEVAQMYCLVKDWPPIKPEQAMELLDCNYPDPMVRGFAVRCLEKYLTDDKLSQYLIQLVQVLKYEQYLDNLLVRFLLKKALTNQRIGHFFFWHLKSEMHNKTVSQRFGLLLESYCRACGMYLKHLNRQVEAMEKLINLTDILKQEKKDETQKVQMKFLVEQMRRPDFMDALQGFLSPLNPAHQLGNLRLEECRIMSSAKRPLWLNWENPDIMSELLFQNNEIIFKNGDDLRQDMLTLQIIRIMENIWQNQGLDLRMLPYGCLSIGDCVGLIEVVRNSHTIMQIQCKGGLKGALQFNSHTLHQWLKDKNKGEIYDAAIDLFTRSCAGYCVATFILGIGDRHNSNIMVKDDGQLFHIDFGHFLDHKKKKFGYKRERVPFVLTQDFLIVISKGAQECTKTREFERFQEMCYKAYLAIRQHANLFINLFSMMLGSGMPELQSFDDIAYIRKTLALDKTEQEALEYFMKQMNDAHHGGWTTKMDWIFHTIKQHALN

Row | SMILES | IC50 (PIK3CA (human)) | IC50 (PIK3CG (human))
1 | Cn1cc(/C=C2\Oc3cccc(O)c3C2=O)c2c(-c3ccc(C(=O)N4CCOCC4)cc3)ccnc21 | 49 nM | 54 nM
2 | Cn1cc(/C=C2\Oc3ccc(NC(=O)NC4CC4)cc3C2=O)c2c(N3CC4CCC(C3)O4)ccnc21 | 289 nM | 2130 nM
3 | CN(C)C(=O)CN(C)C(=O)C1CCN(c2ccnc3c2c(C=C2Oc4ccc(NC(=O)Nc5cccnc5)cc4C2=O)cn3C)CC1 | 4230 nM | 6830 nM
4 | Cn1cc(/C=C2\Oc3ccc(NC(=O)Nc4ccc(Cl)nc4)cc3C2=O)c2c(N3CC4CCC(C3)O4)ccnc21 | 747 nM | 2520 nM
5 | Cn1cc(/C=C2\Oc3cccc(O)c3C2=O)c2c(-c3ccc[nH]3)ccnc21 | 381 nM | 2090 nM

Further lines, results first:

Row | IC50 (PIK3CA (human)) | IC50 (PIK3CG (human)) | SMILES
6 | 109 nM | 276 nM | Cn1cc(/C=C2\Oc3cccc(O)c3C2=O)c2c(-c3ccc(C4=NCCCO4)cc3)ccnc21
7 | 18 nM | 149 nM | Cn1cc(/C=C2\Oc3cc(O)cc(O)c3C2=O)c2c(-c3cncnc3)ccnc21
8 | 183 nM | 139 nM | Cn1cc(/C=C2\Oc3cc(O)cc(O)c3C2=O)c2c(-c3ccc(OC(F)(F)F)cc3)ccnc21
9 | 38 nM | 106 nM | CN(C)S(=O)(=O)c1ccc(-c2ccnc3c2c(/C=C2\Oc4cccc(O)c4C2=O)cn3C)cc1
10 | 52 nM | 157 nM | COc1ccc(-c2ccnc3c2c(/C=C2\Oc4cc(O)cc(O)c4C2=O)cn3C)cc1
